According to patent publication US8680251B2, “Triterpenoid 2-deoxy glycosides, method of preparation thereof and use thereof as medicaments” (Univerzita Palackeho V Olomouci, priority 2008, dated 2014):

What was measured:
[1] = test system: K562-tax (human myeloid leukemia resistant to taxol); assay: Cytotoxic MTT test, K562-tax; assay type: cell-based; settings: K562-tax cells, 72 h
Excerpt: (§1) Cytotoxic MTT test on cell lines derived from normal tissues and tumors were used for assessing the antitumor activity of the novel compounds in vitro. We used namely the lines K562 (human myeloid leukemia), K562-tax (human myeloid leukemia resistant to taxol and overexpressing the protein of multiple drug resistance PgP), CEM (T-lymfoblastic leukemia), CEM-DNR-bulk (T-lymfoblastic leukemia resistant to doxorubicin, lacking the expression of the target gene for topoisomerase II alfa inhibitors and expressing the multiple drug resistance protein MRP1), line A549 (human lung adenocarcinoma), line HT-29 (human colorectal adenocarcinoma), MCF-7 (human breast adenocarcinoma, p53 wild type), HCT116 p53wt (human colorectal adenocarcinoma, wild-type p53), HCT116 p53mut (human colorectal adenocarcinoma with mutated p53), U87Mg (human glioblastoma). Expression characteristics, sensitivity profiles to classical antitumor drugs and methodology of the cytotoxic MTT test were repeatedly published (Nosková V. et al., Neoplasma 2002, S arek J. et al., J. Med. Chem., 2003, Dzubák P. et al., Bioorg. Med. Chem., 2006).
(§2) The MTT test was carried out according to the following procedure. The tested compound in six dilutions (final concentration of 250 μmol/l, another five concentrations were obtained by 4-fold, 16-fold, 64-fold, 256-fold and 1024-fold dilution of this solution) was added to tissue culture of cells in the cultivation plate wells. Each concentration was tested in doublet. The cell suspension was incubated in the environment containing the tested compound for 72 h at 37° C., in 5% CO2 atmosphere and 100% humidity. MTT—[3-(4,5-dimethylthiazol-2-yl)-2,5-difenyl-2H-tetrazolium bromid]—was then added to each well and the incubation was continued for additional 4 h. The incubation was finished by an addition of sodium dodecansulphonate and the percentage of surviving cells was determined spectrophotometrically at 540 nm. The concentration lethal for 50% of the tumor cells—IC50—was calculated from dose-response curves.

[2] = test system: CEM-DNR-bulk (T-lymfoblastic leukemia resistant to doxorubicin); assay: Cytotoxic MTT test, CEM-DNR-bulk; assay type: cell-based; settings: CEM-DNR-BULK cells, 72 h
Excerpt: as §1, §2

[3] = test system: HCT116 p53mut (human colorectal adenocarcinoma with mutated p53); assay: Cytotoxic MTT test, HCT116 p53mut; assay type: cell-based; settings: 72 h
Excerpt: as §1, §2

[4] = test system: K562 (human myeloid leukemia); assay: Cytotoxic MTT test, K562; assay type: cell-based; settings: K562 cells, 72 h
Excerpt: as §1, §2

[5] = test system: U87Mg (human glioblastoma); assay: Cytotoxic MTT test, U87Mg; assay type: cell-based; settings: U87Mg cells, 72 h
Excerpt: as §1, §2

PC-3 = assay: Cytotoxic MTT test, PC-3; assay type: cell-based; settings: PC-3 cells, 72 h
[6] = test system: MCF-7 (human breast adenocarcinoma, p53 wild type); assay: Cytotoxic MTT test, MCF-7; assay type: cell-based; settings: 72 h
Excerpt: as §1, §2

[7] = test system: CEM (T-lymfoblastic leukemia); assay: Cytotoxic MTT test, CEM; assay type: cell-based; settings: CEM cells, 72 h
Excerpt: as §1, §2

[8] = test system: HT-29 (human colorectal adenocarcinoma); assay: Cytotoxic MTT test, HT-29; assay type: cell-based; settings: HT-29 cells, 72 h
Excerpt: as §1, §2

[9] = test system: HCT116 p53wt (human colorectal adenocarcinoma, wild-type p53); assay: Cytotoxic MTT test, HCT116 p53wt; assay type: cell-based; settings: 72 h
Excerpt: as §1, §2

[10] = Storage stability of cyclodextrin solution; assay type: physicochemical; settings: solution of 3a with 2-hydroxypropyl-γ-cyclodextrin in water/propylene glycol, freezer at −20 C, several months
Protocol: 2-hydroxypropyl-γ-cyclodextrin (7.00 g) was dissolved under vigorous stirring and at the temperature of 50° C. in a mixture of water (14.0 ml) and propylene glycol (6.0 ml). 2-deoxy galactoside 3a (1.00 g) is then added at once into the resulting colourless viscous solution and the mixture is vigorously stirred at the temperature of 50° C. Usually, 20 min is needed for complete dissolution. After complete dissolution of the triterpenoid, the resulting bright solution is cooled down to room temperature, filtered by an injection syringe filter (hydrophilic, pore size 0.22 μm) in order to be sterile and is placed to a refrigerator. […] The thus prepared formulation can be used for oral or, after optionally adding a saline solution, for intravenous administration.

Row | decomposition on storage [10] | Structure (SMILES) | IC50 [1] [µM] | IC50 [2] [µM] | IC50 ([3]; HCT116 p53 mut cells) [µM] | IC50 [4] [µM] | IC50 [5] [µM] | IC50 (PC-3) [µM] | IC50 ([6]; MCF-7 cells) [µM] | IC50 [7] [µM] | IC50 [8] [µM] | IC50 ([9]; HCT116 p53wt cells) [µM] | IC50 ([1]; Homo sapiens) [µM] | IC50 ([3]; Homo sapiens, HCT-116, HCT116 p53 mut cells) [µM] | IC50 ([4]; Homo sapiens) [µM] | IC50 ([5]; Homo sapiens, U-87 MG) [µM] | IC50 (PC-3; Homo sapiens) [µM] | IC50 ([6]; Homo sapiens, MCF7, MCF-7 cells) [µM] | IC50 ([7]; Homo sapiens, CCRF-CEM) [µM] | IC50 ([8]; Homo sapiens) [µM] | IC50 ([9]; Homo sapiens, HCT-116, HCT116 p53wt cells) [µM]
1 | – | CC(=O)OC[C@H]1O[C@H](OC[C@@]23CC[C@]4(C)C(CCC5[C@@]6(C)CC[C@H](OC(C)=O)C(C)(C)C6CC[C@]54C)C2=C(C(C)C)C(=O)C3)C[C@@H](OC(C)=O)[C@H]1OC(C)=O (stereo partly shown) [Compound 1a] | 9.8 | 12.5 | 8.8 | 2.4 | ≥ 250 | 23.5 | 11.4 | 1.8 | 11.4 | 7.9 | – | – | – | – | – | – | – | – | –
2 | – | COC(=O)[C@@]12CC[C@]3(C)C(CCC4[C@@]5(C)CC[C@H](O[C@@H]6C[C@@H](O)[C@H](O)[C@@H](CO)O6)C(C)(C)C5CC[C@]43C)C1=C(C(C)C)C(=O)C2 (stereo partly shown) [Compound 3b] | 12.9 | 25 | 21 | 11.6 | 42.7 | 36.4 | 18.4 | 6.2 | 18.9 | 11.5 | – | – | – | – | – | – | – | – | –
3 | – | CC(=O)OC[C@H]1O[C@H](OC[C@@]23CC[C@]4(C)C(CCC5[C@@]6(C)CC[C@H](OC(C)=O)C(C)(C)C6CC[C@]54C)C2=C(C(C)C)C(=O)C3)C[C@@H](Br)[C@@H]1OC(C)=O (stereo partly shown) [Compound 1c] | 22.6 | 27 | 14 | 9 | ≥ 250 | ≥ 250 | 35.2 | 3.8 | 40.9 | 19.1 | – | – | – | – | – | – | – | – | –
4 | – | CC(=O)OC[C@H]1O[C@H](OC[C@@]23CC[C@]4(C)C(CCC5[C@@]6(C)CC[C@H](OC(C)=O)C(C)(C)C6CC[C@]54C)C2=C(C(C)C)C(=O)C3)C[C@@H](OC(C)=O)[C@@H]1OC(C)=O (stereo partly shown) [Compound 1b] | 9.5 | 41.5 | 12.4 | 6.4 | ≥ 250 | 39.3 | 17 | 9.2 | 10.1 | 8.6 | – | – | – | – | – | – | – | – | –
5 | without any detectable decomposition | COC(=O)[C@@]12CC[C@]3(C)C(CCC4[C@@]5(C)CC[C@H](O[C@@H]6C[C@@H](O)[C@@H](O)[C@@H](CO)O6)C(C)(C)C5CC[C@]43C)C1=C(C(C)C)C(=O)C2 (stereo partly shown) [Compound 3a] | 15.9 | 34.4 | 17.5 | 11.5 | 53 | 11.2 | 13.6 | 4.7 | 17.8 | 10.3 | – | – | – | – | – | – | – | – | –
6 | – | COC(=O)[C@@]12CC[C@]3(C)C(CCC4[C@@]5(C)CC[C@H](OC6CC(OC(C)=O)C(OC(C)=O)C(COC(C)=O)O6)C(C)(C)C5CC[C@]43C)C1=C(C(C)C)C(=O)C2 (stereo partly shown) [Compound 2b] | – | 25 | – | – | – | – | – | – | – | – | 3 | 3.5 | 0.6 | ≥ 250 | 22.1 | 2.5 | 0.6 | 2.4 | 1.6
